Assay results reported in article PMC7570859, “Simultaneous Quantification and Pharmacokinetic Study of Five Homologs of Dalbavancin in Rat Plasma Using UHPLC-MS/MS” (Molecules, 2020).
Like-named read-outs stand apart in the source and are kept apart here.

Assays:
[1] = Pharmacokinetic study of dalbavancin components in rat plasma after IV dalbavancin hydrochloride (UHPLC-MS/MS); settings: SD rats, IV 40 mg/kg dalbavancin hydrochloride, mean ± SD, n = 10; for AUC(0–t): 0 to 216 h; for AUC(0–t) / AUC(0–∞): UHPLC-MS/MS, non-compartmental; for MRT / half-life / Vd: both, Sprague-Dawley, rat, iv, 40 mg/kg; for MRT: MRT(0–t); for Vd: Vz (apparent volume of distribution)
Protocol: (§1) A total of 20 animal plasma samples were analyzed using the verified UHPLC-MS/MS detection method to evaluate 28-day multiple-dose pharmacokinetics of dalbavancin hydrochloride injected daily in rats.
(§2) Blood samples were collected and centrifuged (5417R centrifuge, Eppendorf AG, Hamburg, Germany) at 835× g for 10 min to separate the upper plasma. Then, 50 μL of plasma was mixed with 200 μL of methanol (containing dalbavancin B0-D8 isotope internal standard solutions at a concentration of 100 ng/mL), after which the solution was swirled with a multi-tube vortex mixer (Allsheng, Hangzhou, China) for 10 min and centrifuged at 12,000× g for 10 min. To obtain a cleaner supernatant, it was further centrifuged at 12,000× g for 5 min before sample injection.
(§3) The UHPLC system consisted of an ACQUITY UPLC I-Class (Waters Corp., Milford, MA, USA) and separation was achieved on an ACQUITY UPLC BEH C18 (2.1 mm × 100 mm, 1.7 μm, Waters Corp.). The mobile phase contained 0.1% formic acid (phase A) and acetonitrile (phase B), while the gradient elution procedure was as follows; 0.00–1.00 min: 20%B→30%B, 1.00–6.00 min: 30%B→33%B, 6.01–7.00 min: 95%B, 7.00–7.01 min: 95%B→20%B, 7.01–8.00 min: 20%B. The flow rate was 0.300 mL/min, and the sample injection volume was 5.0 μL. The autosampler was maintained at 6 °C.
(§4) The mass spectrometry system used was Xevo TQ triple quadrupole MS/MS (Waters Corp.), equipped with ESI source. After injecting 500 ng/mL of dalbavancin component combined solution and dalbavancin isotope internal standard solution into the mass spectrometer, the optimized parameters of the instrument were obtained as follows: capillary voltage, 3.00 kV; ion source temperature, 150 °C; desolvation gas temperature, 350 °C; collision gas flow rate, 0.15 mL/min; desolvation gas flow rate, 650 L/h. SRM was used for monitoring the positive ion mode and the total analysis run time was 8 min. Data was processed using UNIFI v1.9.3 software (Waters Corp.).
(§5) A total of 20 SD rats (weighing approximately 200 g each) were selected and divided into two equal groups, with each group containing 5 male and 5 female rats. Pharmacokinetic experiments were conducted for single-dose and multiple-dose administration of dalbavancin hydrochloride. The route of administration was IV, with an administration volume of 5 mL/kg and a dosage was 40 mg/kg. Blood sampling time points of the single-dose administration group were before administration (0 h) and 5 min, 3 h, 8 h, 24 h, 72 h, 144 h, and 216 h post administration. Blood was collected on day 28 for the multiple-dose administration group, and the time points of blood collection were the same as those of single-dose administration. The blood samples collected were immediately separated using centrifugation at 12,000× g for 10 min, and then, the plasma were transferred and stored at −16 °C to −24 °C until analysis.
(§6) Microsoft Office Excel 2007 and IBM SPSS Statistics 19.0 were used for data processing and statistical calculation using two-tailed Student’s t-test. Data Analysis System 3.1 software (DAS, Shanghai, China) was used to analyze and calculate AUC(0–∞), T1/2, Cmax and other parameters using the non-compartmental model.

[2] = rat, in vivo, iv, 40 mg/kg
Protocol: as §1, §2, §3, §4, §5, §6

[3] = in vivo; cited from earlier work
[4] = D28, multiple-dose group, daily for 28 days
[5] = T1/2, D28, multiple-dose group, daily for 28 days

Molecule	AUC(0–t) ([1]; D1, single-dose group) [µg·h/mL]	AUC(0–∞) ([1]; D1, single-dose group) [µg·h/mL]	Cmax ([1]; D1, single-dose group) [ng/mL]	MRT ([1]; D1, single-dose group) [h]	MRT [1, 4] [h]	half-life ([1]; T1/2, D1, single-dose group) [h]	half-life [1, 5] [h]	Vd ([1]; D1, single-dose group) [L/kg]	Vd [1, 4] [L/kg]	MRT(0–t) ([2]; both, Sprague-Dawley) [h]	T1/2 ([2]; both, Sprague-Dawley) [h]	Vz (apparent volume of distribution) ([2]; both, Sprague-Dawley) [L/kg]	AUC(0–t) [2] [µg·h/mL]	AUC(0–∞) [2] [µg·h/mL]	Cmax [2] [ng/mL]	plasma AUC(0–∞) relative to the other components combined [2]	Vz (apparent volume of distribution) ([1]; D1, single-dose group) [L/kg]	adverse event: diarrhea [3] [%]	adverse event: headache [3] [%]	adverse event: nausea [3] [%]
CN[C@H]1C(=O)N[C@@H]2Cc3ccc(cc3)Oc3cc4cc(c3O[C@@H]3O[C@H](C(=O)O)[C@@H](O)[C@H](O)[C@H]3NC(=O)CCCCCCCC(C)C)Oc3ccc(cc3Cl)[C@@H](O)[C@@H]3NC(=O)[C@H](NC(=O)[C@@H]4NC(=O)[C@@H](NC2=O)c2cc(cc(O)c2Cl)Oc2cc1ccc2O)c1ccc(O)c(c1)-c1c(O[C@H]2O[C@H](CO)[C@@H](O)[C@H](O)[C@@H]2O)cc(O)cc1[C@@H](C(=O)NCCCN(C)C)NC3=O [A0]	10.5 ± 2.6	11.8 ± 2.6	1800 ± 200	5.6 ± 0.3	60.7 ± 2.7	6.5 ± 0.6	–	–	196 ± 27.3	–	–	–	–	–	–	–	32.9 ± 5.7	–	–	–
Dalbavancin	–	–	–	–	–	–	–	–	–	–	–	–	–	–	–	–	–	4.4	4.7	5.5
CCCCCCCCCCC(=O)N[C@H]1[C@H](Oc2c3cc4cc2Oc2ccc(cc2Cl)[C@@H](O)[C@@H]2NC(=O)[C@H](NC(=O)[C@@H]4NC(=O)[C@H]4NC(=O)[C@@H](Cc5ccc(cc5)O3)NC(=O)[C@H](NC)c3ccc(O)c(c3)Oc3cc(O)c(Cl)c4c3)c3ccc(O)c(c3)-c3c(O[C@H]4O[C@H](CO)[C@@H](O)[C@H](O)[C@@H]4O)cc(O)cc3[C@@H](C(=O)NCCCN(C)C)NC2=O)O[C@H](C(=O)O)[C@@H](O)[C@@H]1O [A1]	155.4 ± 79.9	173.1 ± 65.6	14800 ± 6100	17 ± 3.8	53 ± 5.2	27.5 ± 11.4	110 ± 10.6	–	10.1 ± 1.3	–	–	–	–	–	–	–	9.4 ± 3.3	–	–	–

Second part, led by results:

AUC(0–t) ([1]; D1, single-dose group) [µg·h/mL]	AUC(0–∞) ([1]; D1, single-dose group) [µg·h/mL]	Cmax ([1]; D1, single-dose group) [ng/mL]	MRT ([1]; D1, single-dose group) [h]	MRT [1, 4] [h]	half-life ([1]; T1/2, D1, single-dose group) [h]	half-life [1, 5] [h]	Vd ([1]; D1, single-dose group) [L/kg]	Vd [1, 4] [L/kg]	MRT(0–t) ([2]; both, Sprague-Dawley) [h]	T1/2 ([2]; both, Sprague-Dawley) [h]	Vz (apparent volume of distribution) ([2]; both, Sprague-Dawley) [L/kg]	AUC(0–t) [2] [µg·h/mL]	AUC(0–∞) [2] [µg·h/mL]	Cmax [2] [ng/mL]	plasma AUC(0–∞) relative to the other components combined [2]	Vz (apparent volume of distribution) ([1]; D1, single-dose group) [L/kg]	Molecule	adverse event: diarrhea [3] [%]	adverse event: headache [3] [%]	adverse event: nausea [3] [%]
688.2 ± 272.2	756.2 ± 191.4	42900 ± 18900	32.3 ± 1.5	68.6 ± 8.2	29.1 ± 1.1	87 ± 27.5	2.3 ± 0.4	1.2 ± 0.4	–	–	–	–	–	–	–	–	CCCCCCCCCCCC(=O)N[C@H]1[C@H](Oc2c3cc4cc2Oc2ccc(cc2Cl)[C@@H](O)[C@@H]2NC(=O)[C@H](NC(=O)[C@@H]4NC(=O)[C@H]4NC(=O)[C@@H](Cc5ccc(cc5)O3)NC(=O)[C@H](NC)c3ccc(O)c(c3)Oc3cc(O)c(Cl)c4c3)c3ccc(O)c(c3)-c3c(O[C@H]4O[C@H](CO)[C@@H](O)[C@H](O)[C@@H]4O)cc(O)cc3[C@@H](C(=O)NCCCN(C)C)NC2=O)O[C@H](C(=O)O)[C@@H](O)[C@@H]1O [B1]	–	–	–
–	–	–	–	–	–	–	–	–	23.0 ± 0.9	74.6 ± 45.9	0.7 ± 0.5	5776.5 ± 2593.2	6566.7 ± 1820.3	437300 ± 160300	approximately 5.8 times	–	CN[C@H]1C(=O)N[C@@H]2Cc3ccc(cc3)Oc3cc4cc(c3O[C@@H]3O[C@H](C(=O)O)[C@@H](O)[C@H](O)[C@H]3NC(=O)CCCCCCCCC(C)C)Oc3ccc(cc3Cl)[C@@H](O)[C@@H]3NC(=O)[C@H](NC(=O)[C@@H]4NC(=O)[C@@H](NC2=O)c2cc(cc(O)c2Cl)Oc2cc1ccc2O)c1ccc(O)c(c1)-c1c(O[C@H]2O[C@H](CO)[C@@H](O)[C@H](O)[C@@H]2O)cc(O)cc1[C@@H](C(=O)NCCCN(C)C)NC3=O [B0]	–	–	–
163.7 ± 79.5	187.2 ± 61.2	23400 ± 10400	16.2 ± 2.4	55.7 ± 4.7	87.3 ± 68.9	153 ± 43	28 ± 23	13.5 ± 3.4	–	–	–	–	–	–	–	–	CC(C)CCCCCCCCC(=O)N[C@H]1[C@H](Oc2c3cc4cc2Oc2ccc(cc2Cl)[C@@H](O)[C@@H]2NC(=O)[C@H](NC(=O)[C@@H]4NC(=O)[C@H]4NC(=O)[C@@H](Cc5ccc(cc5)O3)NC(=O)[C@H](N(C)C)c3ccc(O)c(c3)Oc3cc(O)c(Cl)c4c3)c3ccc(O)c(c3)-c3c(O[C@H]4O[C@H](CO)[C@@H](O)[C@H](O)[C@@H]4O)cc(O)cc3[C@@H](C(=O)NCCCN(C)C)NC2=O)O[C@H](C(=O)O)[C@@H](O)[C@@H]1O [B2]	–	–	–
